Results: US8084424B2, “Compositions and methods related to erythropoietin” (University of Utah Research Foundation, priority 2003, dated 2011)
Where a SMILES comes first, the peptide text is derived from it. [ ]: non-standard residue; d: D form. The star is where a group is joined. Sta = CC(C)C[C@H](N)[C@@H](O)CC(=O)O; Isovaleryl = CC(C)CC(=O)*

Assays:
[1] = Aggregation and ionisation of Poly-D-glutamic acid in solution; format: physicochemical; settings: 10 mg/ml, solution at pH≦6
Excerpt: (§1) The mechanism of Poly-D-Glu-induced acute lysosomal storage condition in proximal tubular cells was addressed.

[2] = tested on: lysosomal enzymes (hexoseaminidase, cathepsin B, acid sphigomyelinase, and sulfatase B); experiment: Lysosomal enzyme activities in kidney cortex after injection; format: in vivo, rat; settings: one day after injection, not acid phosphatase
Excerpt: as §1

interstitial cells = experiment: Interstitial cell proliferation in rat kidney (3H-thymidine histoautoradiography, hematoxylin and eosin staining); format: in vivo
Protocol: Sprague-Dawley rats of both sexes, weighing from 180 to 200 g, were used throughout the study. A few days before the experiment, rats were adapted to the housing conditions in a central animal facility (regular 12 hours light/dark cycles, free access to standard rat chow and tap water). […] For histoautoradiographic studies, some treated animals and controls were further injected with 300 μCi of [methyl-^3H]-thymidine intraperitoneally 1 hour before their deaths.
One half of the right kidney was immersed in Boulin solution and processed for paraffin sections (approximately 5-μm thickness) destined for histopathologic and/or histoautoradiographic study. For histopathologic use, sections were stained with hematoxylin and eosin with or without periodic acid-Schiff reagent or with Giemsa stain. Histoautoradiographic studies were performed and the data were presented as described earlier (Kishore et al., 1992; Laurent et al., 1983). Briefly each section was examined along parallel straight lines, extending from the subcapsular to the juxtamedullary region. The number of total and labeled nuclei (S-phase cells) were counted, and the corresponding cell type was identified.
Histoautoradiographic labeling indices were subjected to ANOVA, and the significance of the F value was determined. […]

erythropoietin = experiment: Immunohistochemical staining of kidney sections for erythropoietin; format: in vivo, rat; settings: for erythropoietin staining of proliferating interstitial cells: 250 mg/kg/day sc for 4 days, euthanized on day 5; for EPO-producing peritubular cells after cessation of treatment: 6 days after the cessation of a 4-day treatment, 250 mg/kg/day
Protocol: Male Sprague-Dawley rats were divided randomly into two groups. […] Kidneys were harvested quickly from the dead rats and one half of one kidney was immersed in 10% neutral buffered formalin. The formalin fixed kidneys were dehydrated and embedded in paraffin. Sections of 3 to 4 μM thickness were cut on a microtome. Sections were deparaffinized by standard methods and processed for immunohistochemical staining for CD73 (5′-nucleotidase) and erythropoietin (Epo) as described below.
Deparaffinized kidney sections were treated for exposure of antigenic sites and blocked for non-specific binding by standard methods. Following this they were incubated with specific antibodies to CD 73 (marker for resident fibroblasts in kidney) or Epo. Goat polyclonal antibodies to CD73 and Epo were purchased from the Santa Cruz Biotechnology, Santa Cruz, Calif. They were used at a dilution of 1:50. After washing off the unreacted primary antibodies, the sections were incubated with biotinylated anti-goat polyclonal antibody (secondary antibody), followed by incubation with avidin-biotin complex. Sections were then washed and incubated with substrate to visualize the antigen-antibody reactions. Positive labeling in the sections is seen as brownish color. […] Sections were examined under a Reichert Microscope and digital images were captured using a Nikon Coolpix 0995 Digital Camera.

renal cortex = experiment: Angiogenesis in the renal cortex; format: in vivo; settings: treated rat kidney
kidney = experiment: Renal histology: apoptosis, Trichrome staining for fibrosis, Vimetin immunostaining
Excerpt: The immunohistochemical methods are standard and routinely used in many research and clinical labs.

[3] = 24 hour urine volume and urine osmolality; settings: pre versus post treatment, versus saline
proteases = experiment: Protease inhibitor test: EPO degradation in concentrated medium at pH5.0, assayed by RIA; format: biochemical; settings: pH5.0, 37° C.
Protocol: Protease inhibitors can also be added to the conditioned medium in order to improve EPO yields. Several commercially available protease inhibitors were tested to see if they could prevent EPO degradation at pH5.0. 10× concentrated (Step 1) EPO medium was diluted 1:10 in 50 mM Na Acetate, pH5.0 and then incubated at 37° C. with or without protease inhibitors at a concentration of 5 micrograms/ml. Aliquots were taken over a period of 29 hours and assayed by RIA. […] Pepstatin was then tested to determine the minimum concentration at which it is effective. Under the same conditions as described above, pepstatin was included into 10× concentrated medium over range of 0.0005 to 1 ug/ml and incubated at 37° C. for 25 hours. […] To test the effect of pepstatin in the purification process, 0.2 ug/ml of pepstatin was added to the 10× concentrated medium and to the buffers for the S-Sepharose column. Under these conditions, 97% of EPO was recovered from the S-Sepharose Fast Flow column compared to approximately 60% without the use of a protease inhibitor.

Row | Compound | size of micronic aggregates formed [1] [μm] | activities of several lysosomal enzymes in the kidney cortex [2] | significant proliferative response of peritubular cells (3H-thymidine incorporation) (interstitial cells; 7 days after the cessation of treatment, earlier studies) | interstitial cell labeling (3H-thymidine) (interstitial cells; female rats treated for 2 days, versus saline) | erythropoietin staining of proliferating interstitial cells (erythropoietin; listed as Poly-D-Glu) | erythropoietin staining of proliferating interstitial cells (erythropoietin; listed as poly-D-glutamic acid) | EPO-producing peritubular cells after cessation of treatment (erythropoietin) | EPO-producing peritubular cells after cessation of treatment (erythropoietin; listed as Poly-D-Glu) | angiogenesis in the renal cortex (renal cortex) | mesenchymal changes (Vimetin immunostaining) (kidney; rat, in vivo) | fibrotic changes in the kidney (Trichrome staining) (kidney; versus saline) | ability of kidneys to concentrate urine as assessed by urine osmolality [3] | effect on EPO immunoactivity (proteases; 5 micrograms/ml, over 29 hours, RIA) | IC50 (the concentration at which 50% of the proteases are inhibited) (proteases; 10× concentrated medium, 25 hours, range 0.0005 to 1 ug/ml)
1 | Poly-D-glutamic acid | ≥ 10 | increased | could not be observed | considerably increased | labeled with EPO antibody | strongly stain | persistence | consistent labeling | angiogenesis | detectable mesenchymal changes | not much fibrotic reaction | does not cause marked abnormalities |  | 
2 | CC(C)CC(=O)N[C@H](C(=O)N[C@H](C(=O)N[C@@H](CC(C)C)[C@@H](O)CC(=O)N[C@@H](C)C(=O)N[C@@H](CC(C)C)[C@@H](O)CC(=O)O)C(C)C)C(C)C [Pepstatin] (Isovaleryl-VV[Sta]A[Sta]-OH) |  |  |  |  |  |  |  |  |  |  |  |  | significant stabilizing effect | approximately 0.02 ug/ml
